system: CCRF-CEM; experiment: Anticancer activity against human CCRF-CEM cells assessed as cell viability at 12.5 uM after 48 hrs by MTT assay; format: functional; details: read-out: Activity

Row | Compound | viability at 12.5 µM
1 | CC(O)CCn1nc2c(Br)c(Br)c(Br)c(Br)c2n1 (racemic) | 94%
2 | OC(CCn1nc2c(Br)c(Br)c(Br)c(Br)c2n1)c1ccc(Br)cc1 (stereo not drawn) | 89%
3 | OC(CCn1nc2c(Br)c(Br)c(Br)c(Br)c2n1)c1ccc(Cl)cc1 (stereo not drawn) | 93%
4 | C[C@H](O)CCn1nc2c(Br)c(Br)c(Br)c(Br)c2n1 | 92%

system: MCF7; experiment: Anticancer activity against human MCF7 cells assessed as cell viability at 50 uM after 24 hrs by MTT assay; format: functional; details: MCF7, 24 h, read-out: Activity

Row | Compound | viability at 50 µM
5 | CC(O)CCn1nc2c(Br)c(Br)c(Br)c(Br)c2n1 (racemic) | 90%
6 | OC(CCn1nc2c(Br)c(Br)c(Br)c(Br)c2n1)c1ccc(Br)cc1 (stereo not drawn) | 10%
7 | OC(CCn1nc2c(Br)c(Br)c(Br)c(Br)c2n1)c1ccc(Cl)cc1 (stereo not drawn) | 19%
8 | C[C@H](O)CCn1nc2c(Br)c(Br)c(Br)c(Br)c2n1 | 105%

system: MCF7; experiment: Anticancer activity against human MCF7 cells assessed as cell viability at 50 uM after 48 hrs by MTT assay; format: functional; details: MCF7, 48 h, read-out: Activity

Row | Compound | viability at 50 µM
9 | CC(O)CCn1nc2c(Br)c(Br)c(Br)c(Br)c2n1 (racemic) | 76%
10 | OC(CCn1nc2c(Br)c(Br)c(Br)c(Br)c2n1)c1ccc(Br)cc1 (stereo not drawn) | 15%
11 | OC(CCn1nc2c(Br)c(Br)c(Br)c(Br)c2n1)c1ccc(Cl)cc1 (stereo not drawn) | 9%
12 | C[C@H](O)CCn1nc2c(Br)c(Br)c(Br)c(Br)c2n1 | 87%

biological target: Casein kinase II subunit alpha (Homo sapiens) (UniProt P68400); experiment: Inhibition of human CK2alpha using RRRDDDSDDD peptide substrate at 20 uM by P81 filter-binding assay; set-up: scale not given: the % may be the effect or the level left; details: not given
Sequence (P68400 whole entry, looked up): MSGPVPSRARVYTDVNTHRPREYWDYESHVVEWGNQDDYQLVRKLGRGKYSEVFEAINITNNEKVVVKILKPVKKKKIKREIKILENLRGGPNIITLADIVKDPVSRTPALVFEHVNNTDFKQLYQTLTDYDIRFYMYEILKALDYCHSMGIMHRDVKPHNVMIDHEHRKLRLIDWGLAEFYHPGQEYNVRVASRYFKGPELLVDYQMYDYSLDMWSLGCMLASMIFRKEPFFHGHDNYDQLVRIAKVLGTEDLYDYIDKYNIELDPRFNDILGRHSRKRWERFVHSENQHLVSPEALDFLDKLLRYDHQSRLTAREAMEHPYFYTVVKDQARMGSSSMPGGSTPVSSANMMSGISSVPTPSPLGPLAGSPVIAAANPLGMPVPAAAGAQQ

Row | Compound | Activity
13 | OC(CCn1nc2c(Br)c(Br)c(Br)c(Br)c2n1)c1ccc(Br)cc1 (stereo not drawn) | 97.4%
14 | OC(CCn1nc2c(Br)c(Br)c(Br)c(Br)c2n1)c1ccc(Cl)cc1 (stereo not drawn) | 95.6%

system: CCRF-CEM; experiment: Anticancer activity against human CCRF-CEM cells assessed as cell viability at 12.5 uM after 24 hrs by MTT assay; format: functional; details: read-out: Activity

Row | Compound | viability at 12.5 µM
15 | CC(O)CCn1nc2c(Br)c(Br)c(Br)c(Br)c2n1 (racemic) | 106%
16 | OC(CCn1nc2c(Br)c(Br)c(Br)c(Br)c2n1)c1ccc(Br)cc1 (stereo not drawn) | 101%
17 | OC(CCn1nc2c(Br)c(Br)c(Br)c(Br)c2n1)c1ccc(Cl)cc1 (stereo not drawn) | 105%
18 | C[C@H](O)CCn1nc2c(Br)c(Br)c(Br)c(Br)c2n1 | 126%

system: CCRF-CEM; experiment: Anticancer activity against human CCRF-CEM cells assessed as cell viability at 100 uM after 48 hrs by MTT assay; format: functional; details: read-out: Activity

Row | Compound | viability at 100 µM
19 | CC(O)CCn1nc2c(Br)c(Br)c(Br)c(Br)c2n1 (racemic) | 0%
20 | OC(CCn1nc2c(Br)c(Br)c(Br)c(Br)c2n1)c1ccc(Br)cc1 (stereo not drawn) | 0%
21 | OC(CCn1nc2c(Br)c(Br)c(Br)c(Br)c2n1)c1ccc(Cl)cc1 (stereo not drawn) | 0%
22 | C[C@H](O)CCn1nc2c(Br)c(Br)c(Br)c(Br)c2n1 | 10%

system: MCF7; experiment: Anticancer activity against human MCF7 cells assessed as cell viability at 12.5 uM after 24 hrs by MTT assay; format: functional; details: MCF7, 24 h, read-out: Activity

Row | Compound | viability at 12.5 µM
23 | CC(O)CCn1nc2c(Br)c(Br)c(Br)c(Br)c2n1 (racemic) | 99%
24 | OC(CCn1nc2c(Br)c(Br)c(Br)c(Br)c2n1)c1ccc(Br)cc1 (stereo not drawn) | 82%
25 | OC(CCn1nc2c(Br)c(Br)c(Br)c(Br)c2n1)c1ccc(Cl)cc1 (stereo not drawn) | 90%
26 | C[C@H](O)CCn1nc2c(Br)c(Br)c(Br)c(Br)c2n1 | 112%

biological target: Casein kinase II subunit alpha (Homo sapiens) (UniProt P68400); experiment: Inhibition of human CK2alpha using RRRDDDSDDD peptide substrate at 200 uM by P81 filter-binding assay; set-up: scale not given: the % may be the effect or the level left; details: not given

Row | Compound | Activity
27 | OC(CCn1nc2c(Br)c(Br)c(Br)c(Br)c2n1)c1ccc(Br)cc1 (stereo not drawn) | 33.5%
28 | OC(CCn1nc2c(Br)c(Br)c(Br)c(Br)c2n1)c1ccc(Cl)cc1 (stereo not drawn) | 45.4%

system: CCRF-CEM; experiment: Anticancer activity against human CCRF-CEM cells assessed as cell viability at 25 uM after 48 hrs by MTT assay; format: functional; details: read-out: Activity

Row | Compound | viability at 25 µM
29 | CC(O)CCn1nc2c(Br)c(Br)c(Br)c(Br)c2n1 (racemic) | 86%
30 | OC(CCn1nc2c(Br)c(Br)c(Br)c(Br)c2n1)c1ccc(Br)cc1 (stereo not drawn) | 69%
31 | OC(CCn1nc2c(Br)c(Br)c(Br)c(Br)c2n1)c1ccc(Cl)cc1 (stereo not drawn) | 69%
32 | C[C@H](O)CCn1nc2c(Br)c(Br)c(Br)c(Br)c2n1 | 89%

system: CCRF-CEM; experiment: Anticancer activity against human CCRF-CEM cells assessed as cell viability at 100 uM after 24 hrs by MTT assay; format: functional; details: read-out: Activity

Row | Compound | viability at 100 µM
33 | CC(O)CCn1nc2c(Br)c(Br)c(Br)c(Br)c2n1 (racemic) | 3%
34 | OC(CCn1nc2c(Br)c(Br)c(Br)c(Br)c2n1)c1ccc(Br)cc1 (stereo not drawn) | 0%
35 | OC(CCn1nc2c(Br)c(Br)c(Br)c(Br)c2n1)c1ccc(Cl)cc1 (stereo not drawn) | 0%
36 | C[C@H](O)CCn1nc2c(Br)c(Br)c(Br)c(Br)c2n1 | 36%

system: MCF7; experiment: Anticancer activity against human MCF7 cells assessed as cell viability at 12.5 uM after 48 hrs by MTT assay; format: functional; details: MCF7, 48 h, read-out: Activity

Row | Compound | viability at 12.5 µM
37 | CC(O)CCn1nc2c(Br)c(Br)c(Br)c(Br)c2n1 (racemic) | 79%
38 | OC(CCn1nc2c(Br)c(Br)c(Br)c(Br)c2n1)c1ccc(Br)cc1 (stereo not drawn) | 107%
39 | OC(CCn1nc2c(Br)c(Br)c(Br)c(Br)c2n1)c1ccc(Cl)cc1 (stereo not drawn) | 100%
40 | C[C@H](O)CCn1nc2c(Br)c(Br)c(Br)c(Br)c2n1 | 100%

system: MCF7; experiment: Anticancer activity against human MCF7 cells assessed as cell viability at 25 uM after 24 hrs by MTT assay; format: functional; details: MCF7, 24 h, read-out: Activity

Row | Compound | viability at 25 µM
41 | CC(O)CCn1nc2c(Br)c(Br)c(Br)c(Br)c2n1 (racemic) | 102%
42 | OC(CCn1nc2c(Br)c(Br)c(Br)c(Br)c2n1)c1ccc(Br)cc1 (stereo not drawn) | 59%
43 | OC(CCn1nc2c(Br)c(Br)c(Br)c(Br)c2n1)c1ccc(Cl)cc1 (stereo not drawn) | 96%
44 | C[C@H](O)CCn1nc2c(Br)c(Br)c(Br)c(Br)c2n1 | 102%

system: CCRF-CEM; experiment: Anticancer activity against human CCRF-CEM cells assessed as cell viability at 50 uM after 48 hrs by MTT assay; format: functional; details: read-out: Activity

Row | Compound | viability at 50 µM
45 | CC(O)CCn1nc2c(Br)c(Br)c(Br)c(Br)c2n1 (racemic) | 45%
46 | OC(CCn1nc2c(Br)c(Br)c(Br)c(Br)c2n1)c1ccc(Br)cc1 (stereo not drawn) | 0%
47 | OC(CCn1nc2c(Br)c(Br)c(Br)c(Br)c2n1)c1ccc(Cl)cc1 (stereo not drawn) | 0%
48 | C[C@H](O)CCn1nc2c(Br)c(Br)c(Br)c(Br)c2n1 | 42%

system: MCF7; experiment: Anticancer activity against human MCF7 cells assessed as cell viability at 100 uM after 48 hrs by MTT assay; format: functional; details: MCF7, 48 h, read-out: Activity

Row | Compound | viability at 100 µM
49 | CC(O)CCn1nc2c(Br)c(Br)c(Br)c(Br)c2n1 (racemic) | 0%
50 | OC(CCn1nc2c(Br)c(Br)c(Br)c(Br)c2n1)c1ccc(Br)cc1 (stereo not drawn) | 0%
51 | OC(CCn1nc2c(Br)c(Br)c(Br)c(Br)c2n1)c1ccc(Cl)cc1 (stereo not drawn) | 0%
52 | C[C@H](O)CCn1nc2c(Br)c(Br)c(Br)c(Br)c2n1 | 6%

system: MCF7; experiment: Anticancer activity against human MCF7 cells assessed as cell viability at 100 uM after 24 hrs by MTT assay; format: functional; details: MCF7, 24 h, read-out: Activity

Row | Compound | viability at 100 µM
53 | CC(O)CCn1nc2c(Br)c(Br)c(Br)c(Br)c2n1 (racemic) | 57%
54 | OC(CCn1nc2c(Br)c(Br)c(Br)c(Br)c2n1)c1ccc(Br)cc1 (stereo not drawn) | 0%
55 | OC(CCn1nc2c(Br)c(Br)c(Br)c(Br)c2n1)c1ccc(Cl)cc1 (stereo not drawn) | 0%
56 | C[C@H](O)CCn1nc2c(Br)c(Br)c(Br)c(Br)c2n1 | 31%

system: MCF7; experiment: Anticancer activity against human MCF7 cells assessed as cell viability at 25 uM after 48 hrs by MTT assay; format: functional; details: MCF7, 48 h, read-out: Activity

Row | Compound | viability at 25 µM
57 | CC(O)CCn1nc2c(Br)c(Br)c(Br)c(Br)c2n1 (racemic) | 73%
58 | OC(CCn1nc2c(Br)c(Br)c(Br)c(Br)c2n1)c1ccc(Br)cc1 (stereo not drawn) | 105%
59 | OC(CCn1nc2c(Br)c(Br)c(Br)c(Br)c2n1)c1ccc(Cl)cc1 (stereo not drawn) | 92%
60 | C[C@H](O)CCn1nc2c(Br)c(Br)c(Br)c(Br)c2n1 | 89%

system: CCRF-CEM; experiment: Anticancer activity against human CCRF-CEM cells assessed as cell viability at 25 uM after 24 hrs by MTT assay; format: functional; details: read-out: Activity

Row | Compound | viability at 25 µM
61 | CC(O)CCn1nc2c(Br)c(Br)c(Br)c(Br)c2n1 (racemic) | 113%
62 | OC(CCn1nc2c(Br)c(Br)c(Br)c(Br)c2n1)c1ccc(Br)cc1 (stereo not drawn) | 109%
63 | OC(CCn1nc2c(Br)c(Br)c(Br)c(Br)c2n1)c1ccc(Cl)cc1 (stereo not drawn) | 106%
64 | C[C@H](O)CCn1nc2c(Br)c(Br)c(Br)c(Br)c2n1 | 112%

system: CCRF-CEM; experiment: Anticancer activity against human CCRF-CEM cells assessed as cell viability at 50 uM after 24 hrs by MTT assay; format: functional; details: read-out: Activity

Row | Compound | viability at 50 µM
65 | CC(O)CCn1nc2c(Br)c(Br)c(Br)c(Br)c2n1 (racemic) | 89%
66 | OC(CCn1nc2c(Br)c(Br)c(Br)c(Br)c2n1)c1ccc(Br)cc1 (stereo not drawn) | 58%
67 | OC(CCn1nc2c(Br)c(Br)c(Br)c(Br)c2n1)c1ccc(Cl)cc1 (stereo not drawn) | 56%
68 | C[C@H](O)CCn1nc2c(Br)c(Br)c(Br)c(Br)c2n1 | 86%

From ChEMBL document CHEMBL3351930, “Synthesis of novel chiral TBBt derivatives with hydroxyl moiety. Studies on inhibition of human protein kinase CK2α and cytotoxicity properties” (Eur J Med Chem, 2014)
